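A five-concentration, 48-hour dose response in 96-well plates underlies each endpoint, interpolated linearly between surrounding concentrations. At the GI50, growth is halved. The concentration for full growth arrest is given as TGI.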
Key:
Experiment in all cases: inhibition of tumour cell growth, NCI panel, 48 h
KM12 colon = system: KM12 colon
MOLT-4 leukemia = system: MOLT-4 leukemia
SK-OV-3 ovarian = system: SK-OV-3 ovarian
SN12C renal = system: SN12C renal
DU-145 prostate = system: DU-145 prostate
OVCAR-3 ovarian = system: OVCAR-3 ovarian
HCT-15 colon = system: HCT-15 colon
NCI-H522 lung = system: NCI-H522 lung
EKVX NSCLC = system: EKVX NSCLC
MALME-3M melanoma = system: MALME-3M melanoma

O=C(CC(O)c1ccncc1)c1ccccc1 (configuration not stated)
GI50 (KM12 colon): 33.7 µM | TGI (KM12 colon): > 100 µM | GI50 (MOLT-4 leukemia): 22.2 µM | TGI (MOLT-4 leukemia): 79.4 µM | GI50 (SK-OV-3 ovarian): 25.4 µM | TGI (SK-OV-3 ovarian): 93.3 µM | GI50 (SN12C renal): 29.8 µM | TGI (SN12C renal): > 100 µM | GI50 (DU-145 prostate): 45.5 µM | TGI (DU-145 prostate): > 100 µM | GI50 (OVCAR-3 ovarian): 30.5 µM | TGI (OVCAR-3 ovarian): > 100 µM | GI50 (HCT-15 colon): 28.2 µM | TGI (HCT-15 colon): > 100 µM | GI50 (NCI-H522 lung): 29.4 µM | TGI (NCI-H522 lung): 99.3 µM

CCN(CC)CCC(=O)N1CCc2c([nH]c3ccccc23)C1c1cccnc1 (configuration not stated)
TGI (KM12 colon): > 100 µM | TGI (MOLT-4 leukemia): > 100 µM | TGI (SK-OV-3 ovarian): > 100 µM | TGI (SN12C renal): > 100 µM | TGI (OVCAR-3 ovarian): > 100 µM | TGI (HCT-15 colon): > 100 µM | TGI (EKVX NSCLC): > 100 µM | TGI (NCI-H522 lung): > 100 µM

O=c1[nH]c(=O)n(C2CC(O)C(CO)O2)cc1C#Cc1cc(C(F)(F)F)cc(C(F)(F)F)c1 (configuration not stated)
TGI (KM12 colon): > 100 µM | TGI (MOLT-4 leukemia): > 100 µM | TGI (SK-OV-3 ovarian): > 100 µM | TGI (SN12C renal): > 100 µM | TGI (MALME-3M melanoma): > 100 µM | TGI (OVCAR-3 ovarian): > 100 µM | TGI (HCT-15 colon): > 100 µM | TGI (EKVX NSCLC): > 100 µM | TGI (NCI-H522 lung): > 81.5 µM

N#CCCN(CCC#N)c1ccc(/C=N\c2nc(-c3ccccc3)cs2)cc1
TGI (MOLT-4 leukemia): > 100 µM | TGI (SK-OV-3 ovarian): > 100 µM | TGI (SN12C renal): > 100 µM | TGI (MALME-3M melanoma): > 100 µM | TGI (OVCAR-3 ovarian): > 100 µM | TGI (HCT-15 colon): > 100 µM | TGI (EKVX NSCLC): > 100 µM | TGI (NCI-H522 lung): > 100 µM

C[N+](C)(C)Cc1c(CC#N)[nH]c2ccccc12
TGI (KM12 colon): > 100 µM | TGI (MOLT-4 leukemia): > 100 µM | TGI (SN12C renal): > 100 µM | TGI (MALME-3M melanoma): > 100 µM | TGI (OVCAR-3 ovarian): > 100 µM | TGI (HCT-15 colon): > 100 µM | TGI (EKVX NSCLC): > 100 µM | TGI (NCI-H522 lung): > 100 µM

Oc1ccc2c3c1OC1C(=NN=C4CCC5(O)C6Cc7ccc(O)c8c7C5(CCN6CC5CC5)C4O8)CCC4(O)C(C2)N(CC2CC2)CCC314 (configuration not stated)
TGI (KM12 colon): 40.2 µM | TGI (MOLT-4 leukemia): > 74 µM | TGI (SK-OV-3 ovarian): > 75.2 µM | TGI (SN12C renal): > 59.9 µM | TGI (MALME-3M melanoma): 34.5 µM | TGI (OVCAR-3 ovarian): 34.6 µM | TGI (HCT-15 colon): > 100 µM | TGI (EKVX NSCLC): > 85.2 µM | TGI (NCI-H522 lung): 57.4 µM

Oc1ccccc1Nc1nc2ccccc2c2occc12
GI50 (KM12 colon): 12.5 µM | TGI (KM12 colon): 50.7 µM | GI50 (SK-OV-3 ovarian): 11.1 µM | TGI (SK-OV-3 ovarian): 25.2 µM | GI50 (SN12C renal): 11.1 µM | TGI (SN12C renal): 23.1 µM | GI50 (DU-145 prostate): 9.66 µM | TGI (DU-145 prostate): 21.4 µM | GI50 (OVCAR-3 ovarian): 2.48 µM | TGI (OVCAR-3 ovarian): 16.3 µM | GI50 (HCT-15 colon): 12.8 µM | TGI (HCT-15 colon): 31.7 µM | GI50 (EKVX NSCLC): 11.3 µM | TGI (EKVX NSCLC): 26.2 µM | GI50 (NCI-H522 lung): 8.36 µM | TGI (NCI-H522 lung): 24.2 µM

CCOP(=O)(OCC)/C(C#N)=C/c1ccc[nH]1
TGI (KM12 colon): > 100 µM | TGI (MOLT-4 leukemia): > 100 µM | TGI (SK-OV-3 ovarian): > 100 µM | TGI (SN12C renal): > 100 µM | TGI (MALME-3M melanoma): > 100 µM | TGI (OVCAR-3 ovarian): > 100 µM | TGI (HCT-15 colon): > 100 µM | TGI (NCI-H522 lung): > 100 µM

CCC[CH2][Sn]1([CH2]CCC)[O]C(=O)c2cccc(OC)c2[O]1
GI50 (KM12 colon): 1.1 µM | TGI (KM12 colon): 2.32 µM | GI50 (MOLT-4 leukemia): 0.217 µM | TGI (MOLT-4 leukemia): 1.36 µM | GI50 (SK-OV-3 ovarian): 1.39 µM | TGI (SK-OV-3 ovarian): 2.71 µM | GI50 (SN12C renal): 0.47 µM | TGI (SN12C renal): 1.71 µM | GI50 (MALME-3M melanoma): 0.14 µM | TGI (MALME-3M melanoma): 0.633 µM | GI50 (OVCAR-3 ovarian): 0.626 µM | TGI (OVCAR-3 ovarian): 2.01 µM | GI50 (HCT-15 colon): 0.698 µM | TGI (HCT-15 colon): 2 µM | GI50 (EKVX NSCLC): 1.31 µM | TGI (EKVX NSCLC): 2.7 µM | GI50 (NCI-H522 lung): 0.0386 µM | TGI (NCI-H522 lung): 0.179 µM

Cn1cnc([N+](=O)[O-])c1Sc1nc2cccnc2s1
TGI (KM12 colon): > 100 µM | TGI (MOLT-4 leukemia): 23.6 µM | TGI (SK-OV-3 ovarian): > 100 µM | TGI (SN12C renal): 33.5 µM | TGI (MALME-3M melanoma): 22 µM | TGI (OVCAR-3 ovarian): 28.1 µM | TGI (HCT-15 colon): 24.8 µM | TGI (EKVX NSCLC): 33.8 µM

COC(=O)c1c(C)cc2c(c1O)C1(O)C(=O)c3cc4c(c(O)c3C(=O)C1(OC)C(O)C2)C(=O)C=C(NC1OC(C)C(OC)C(O)C1OC)C4=O (configuration not stated)
TGI (KM12 colon): 0.562 µM | TGI (MOLT-4 leukemia): 0.13 µM | TGI (SK-OV-3 ovarian): 1.58 µM | TGI (SN12C renal): 0.243 µM | TGI (MALME-3M melanoma): 0.249 µM | TGI (OVCAR-3 ovarian): 0.558 µM | TGI (HCT-15 colon): 0.443 µM | TGI (EKVX NSCLC): 0.864 µM | TGI (NCI-H522 lung): 0.257 µM

O=C(Nc1ccc([N+](=O)[O-])cc1C(=O)O)c1ccc([N+](=O)[O-])cc1
TGI (KM12 colon): 99.5 µM | TGI (MOLT-4 leukemia): 31.4 µM | TGI (SK-OV-3 ovarian): > 100 µM | TGI (SN12C renal): > 100 µM | TGI (MALME-3M melanoma): > 100 µM | TGI (OVCAR-3 ovarian): > 100 µM | TGI (HCT-15 colon): > 100 µM | TGI (EKVX NSCLC): > 100 µM

O=C1C2C(C(=O)N1c1ccccc1)C1(c3ccccc3)OC2(c2ccccc2)c2ccccc21 (configuration not stated)
TGI (KM12 colon): > 100 µM | TGI (MOLT-4 leukemia): > 100 µM | TGI (SK-OV-3 ovarian): > 100 µM | TGI (SN12C renal): > 100 µM | TGI (MALME-3M melanoma): > 100 µM | TGI (OVCAR-3 ovarian): > 100 µM | TGI (HCT-15 colon): > 100 µM | TGI (EKVX NSCLC): > 100 µM | TGI (NCI-H522 lung): > 100 µM

CN(C)CC(C)(C)C(/C=C/c1ccccc1)=N\Nc1ccccc1
TGI (KM12 colon): 26.6 µM | TGI (MOLT-4 leukemia): 17.3 µM | TGI (SK-OV-3 ovarian): 38.8 µM | TGI (SN12C renal): 17.6 µM | TGI (MALME-3M melanoma): 26.6 µM | TGI (OVCAR-3 ovarian): 14 µM | TGI (HCT-15 colon): 2.46 µM | TGI (EKVX NSCLC): 16.4 µM | TGI (NCI-H522 lung): 23.9 µM

Cc1cc(NS(=O)(=O)c2ccc(NC(=O)c3cccc4cc5ccccc5nc34)cc2)no1
TGI (KM12 colon): 40.7 µM | TGI (MOLT-4 leukemia): 48.4 µM | TGI (SK-OV-3 ovarian): > 100 µM | TGI (SN12C renal): 43.3 µM | TGI (MALME-3M melanoma): 31.9 µM | TGI (OVCAR-3 ovarian): 45.5 µM | TGI (HCT-15 colon): 35.7 µM | TGI (EKVX NSCLC): 90.9 µM | TGI (NCI-H522 lung): 33.8 µM

— PubChem BioAssay (NCI)
